According to patent EP0209274A2, “Furanone derivatives” (ELI LILLY AND COMPANY, priority 1985, dated 1987):

target: T1, 5-Lipoxygenase (Cavia porcellus, UniProt A0A286X958); test: 5-Lipoxygenase (5-LPO) Assay; format: biochemical, guinea pigs; conditions: inhibition of 5-HETE formation; supernatant of guinea pig PMNL sonicate; read-out: 5-LPO IC50 (µg/ml) (converted)
T1 construct: The PMNL suspension was disrupted by five ½-second pulse sonication; from tissue; host or cells: guinea pig peritoneal polymorphonuclear leukocytes (30,000 x g supernatant of the sonicate)
T1 sequence (A0A286X958 1-674): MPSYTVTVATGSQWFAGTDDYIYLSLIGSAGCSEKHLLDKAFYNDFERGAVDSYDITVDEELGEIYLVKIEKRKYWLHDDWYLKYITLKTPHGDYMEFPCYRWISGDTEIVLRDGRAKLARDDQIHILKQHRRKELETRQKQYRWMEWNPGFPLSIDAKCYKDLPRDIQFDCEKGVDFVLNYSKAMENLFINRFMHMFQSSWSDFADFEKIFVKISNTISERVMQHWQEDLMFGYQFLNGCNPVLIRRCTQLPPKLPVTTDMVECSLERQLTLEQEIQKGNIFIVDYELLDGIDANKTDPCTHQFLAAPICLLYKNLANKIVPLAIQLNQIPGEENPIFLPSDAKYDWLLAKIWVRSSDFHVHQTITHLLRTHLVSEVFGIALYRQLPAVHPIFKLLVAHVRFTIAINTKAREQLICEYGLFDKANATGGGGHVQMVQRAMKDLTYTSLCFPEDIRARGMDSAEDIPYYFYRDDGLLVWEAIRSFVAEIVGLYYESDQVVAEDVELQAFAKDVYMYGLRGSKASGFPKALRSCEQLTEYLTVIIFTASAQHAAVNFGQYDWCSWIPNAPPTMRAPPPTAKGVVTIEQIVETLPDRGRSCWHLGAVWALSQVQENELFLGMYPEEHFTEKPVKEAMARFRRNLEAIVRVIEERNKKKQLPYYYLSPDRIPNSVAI
Description: Ten milliliters of a 2% casein solution were injected intraperitoneally to guinea pigs weighing 250-300 gm. After 16-18 hours, the guinea pigs were killed by suffocation in a carbon dioxide chamber. The peritoneal cavity was infused with 70 ml of saline and 40-50 ml of the fluid were recovered from the cavity. After centrifugation, cell pellets were washed twice in Hank's balanced salt solution (HBSS) without calcium ion.
The cells were then suspended in 5 ml of sodium phosphate buffer, pH 7.1 containing 1 mM EDTA, and 0.1% gelatin. About 20-30 x 10^7 cells were obtained from one guinea pig.
The PMNL suspension was disrupted by five ½-second pulse sonication at the setting of 3 in a Branson Sonifier, Model 350, equipped with a microtip. The sonicates were combined and centrifuged at 30,000 x g for 10 minutes. The supernatant was kept frozen at -70°C until use.
. Enzyme activity was determined by assaying for 5-HETE formatiun by first incubating 0.2 ml of the supernatant obtained from the PMNL sonicate with the test compound, 1 mM CaCl2, 2 mM ATP, and 1 mM GSH for 5 minutes at 37°C. The mixture is treated with 5 pM ^14C-arachidonic acid and incubated at 37°C an additional 10 minutes. The enzyme reaction was then stopped by the addition of 10 µl of 1M citric acid and 10 µl of an alcohol solution containing 20 mg/ml each of indomethacin and butylated hydroxyanisole (BHA). The reaction mixture was spotted (50 µl) on a silica gel plate (Baker TLC plate S1250-PA-19C) and subjected to TLC in a solvent system of ethyl acetate/2,2,4-tri- methylpentane/glacial acetic acid/H20 (90:50:20:100).
The radioactivity of the arachidonic acid and its metabolites (5-HETE and LTB4) was visualized from a developed x-ray film which had been exposed to the TLC plate 1-2 days. The amount of 5-HETE formed was quanti- tated by scraping the silica gel area corresponding to the spot on the x-ray film, and the radioactivity determined in a Isocap/300 liquid scintillation counter (Searle Analytic, Inc.).
The percent inhibition of the formation of 5-HETE was determined for each concentration of test compound tested as compared to a control experiment wherein no test compound was added. The concentration and percent inhibition values were plotted on semi log paper and the concentration in which formation of 5-HETE is inhibited by 50% (ICso) was determined by interpolation.

First: CC/C=C\C/C=C\C/C=C\C/C=C\C/C=C\C/C=C\CC1=CC(=O)OC1O (centres unmarked) [Example 9, (Z,Z,Z,Z,Z,Z)-4-(2,5,8,11,14,17-eicosa-hexaenyl)-5-hydroxy-2(5H)-furanone]
Second: CCCCC/C=C\C/C=C\C/C=C\C/C=C\CCC1=CC(=O)OC1O (centres unmarked) [Example 3, (Z,Z,Z,Z)-5-hydroxy-4-(3,6,9,12-octa-decatetraenyl)-2(5H)-furanone]
The IC50 of the first is higher: 2.17 to 16.3 µM for the first, 0.435 to 1.16 µM for the second.

First: CCCCCCCC/C=C\CCCCCCC1=CC(=O)OC1O (centres unmarked) [Example 11, (Z)-4-(7-hexadecenyl)-5-hydroxy-2(5H)-furanone]
Second: CCCCCCCC/C=C/CCCCCCC1=CC(=O)OC1O (centres unmarked) [Example 4, (E)-4-(7-hexadecenyl)-5-hydroxy-2(5H)-furanone]
The IC50 of the first is 2.5-fold lower: 1.24 µM for the first, roughly 3.1 µM for the second.

Compared with `CC(C)=CCCC(C)=CCCC(=CCCC1=CC(=O)OC1O)CO` (centres unmarked) [Example 19, 5-Hydroxy-4-[4-(hydroxymethyl)-8,12-dimethyl-3,7,11-tridecatrienyl]-2(5H)-furanone], `CC(C)=CCCC(C)=CCCC(C)=CCCC1=CC(=O)OC1O` (centres unmarked) [Example 13, 5-Hydroxy-4-(4,8,12-trimethyl-3,7,11-tri-decatrienyl)-2(5H)-furanone] is 5.6-fold higher in IC50: 4.48 µM for the first, 25.1 µM for the second.

`CCCCC/C=C\C/C=C\CCCCCCC1=CC(=O)OC1O` (centres unmarked) [Example 1, (Z,Z)-4-(7,10-hexadecadienyl)-5-hydroxy-2-(5H)-furanone] and `CCCCC/C=C\C/C=C\C/C=C\CCCC1=CC(=O)OC1O` (centres unmarked) [Example 5, (Z,Z,Z)-4-(4,7,10-hexadecatrienyl)-5-hydroxy-2(5H)-furanone] cannot be ordered by IC50: 1.25 to 3.12 µM for the first, 1.57 to 4.71 µM for the second.

First: CC/C=C\C/C=C\C/C=C\CCCCCCC1=CC(=O)OC1O (centres unmarked) [Example 2, (Z,Z,Z)-4-(7,10,13-hexadecatrienyl)-5-hydroxy-2(5H)-furanone]
Second: CC(C)=CCC/C(C)=C/CCC1=CC(=O)OC1O (centres unmarked) [Example 14, (E,E)-4-(4,8-dimethyl-3,7-nonadienyl)-5-hydroxy-2(5H)-furanone]
The IC50 of the first is lower: 0.471 to 1.88 µM for the first, 24 µM for the second.

`O=C1C=C(CCCCOc2ccc3ccccc3c2)C(O)O1` (centres unmarked) [Example 12, 5-Hydroxy-4-[4-(2-naphthalenyloxy)butyl]-2(5H)-furanone] and `O=C1C=C(CCCCCOc2ccccc2Cc2ccccc2)C(O)O1` (centres unmarked) [Example 18, 5-Hydroxy-4-[5-(2-benzylphenoxy)pentyl]-2(5H)-furanone] cannot be ordered by IC50: 16.8 to 40.2 µM for the first, 28.4 µM for the second.

For `CC(C)=CCCC(C)=CCCC(C=O)=CCCC1=CC(=O)OC1O` (centres unmarked) [Example 15, 2-[3-(2,5-dihydro-2-hydroxy-5-oxo-3-furanyl)-propylidene]-6,10-dimethyl-5,9-undecadienal], the IC50 was 0.241 µM.

target: Pancreatic phospholipase A2 (Homo sapiens, UniProt P04054); test: Phospholipase A2 (PLA2) Assay; format: biochemical; conditions: 30 µg/ml test compound; inhibition of 14C-free fatty acid formation
Description: The assay buffer contained 10 mM Tris-HCl buffer, pH 8.0, 100 mM NaCl, 1 mM CaCl2 and 1 mg/ml of bovine serum albumin. A toluene-ethanol (1:1 v/v) solution of phosphatidiylcholine, L-a-dipalmitoyl-(2-palmitoyl-1-^14C) obtained from New England Nuclear was evaporated to dryness in a flask under nitrogen and the assay buffer was added to give a substrate concentration of 9.0 x 10^-5M (specific activity = 27.7 mCi/mmol). The mixture was sonicated for 5 minutes in a Bransonic 220 Sonication Bath. Pancreatic phospholipase A2 (specific activity = 600 units/mg) was diluted with the assay buffer to give an enzyme concentration of 0.1 mg/ml. […] To initiate the enzyme reaction, 0.1 ml of the mixture containing the substrate was added to the enzyme solution and the reaction mixture was further incubated for 30 minutes at 37°C. The reaction was then terminated by the addition of 20 µl of 1M citric acid.
Fifty µl of the mixture was added to 10 ml of scintillation fluid [5.88 g of 2,5-diphenyl-oxazole and 118 mg of 1,4-bis(5-phenyloxazol-2-yl)benzene] dissolved in 650 ml of toluene and 350 ml of Triton X-100) and the radioactivity was determined in an Isocap/300 liquid scintillation counter (Searle Analytic Inc., Southfield, Michigan). Another 50 µl of the mixture was applied directly onto the spotting area of a silica gel plate (LK6D, Whatman, Clifton, N.J.) and subjected to thin layer chromatography in a solvent system of ethyl acetate:acetic acid:2,2,4-trimethylpentane:H20 (90:20:50:100, v/v/v). The silica gel on the plate was scraped in 1 cm sections, suspended in 5 ml of the Triton X-100 based scintillation fluid and the radioactivity was determined. Phosphatidylcholine remained at the origin while fatty acids migrated to a few centimeters (2-3 cm) below the solvent front. The percent of ^14C-free fatty acid formed with the test compound added was calculated as compared to the amount formed in control experiments where no test compound was added. […]

Sequence of Pancreatic phospholipase A2 (P04054 23-148): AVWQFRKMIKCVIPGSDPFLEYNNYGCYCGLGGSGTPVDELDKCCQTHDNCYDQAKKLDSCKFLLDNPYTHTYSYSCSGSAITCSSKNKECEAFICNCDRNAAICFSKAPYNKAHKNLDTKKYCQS

Compared with `CC/C=C\C/C=C\C/C=C\C/C=C\C/C=C\C/C=C\CC1=CC(=O)OC1O` (centres unmarked) [Example 9, (Z,Z,Z,Z,Z,Z)-4-(2,5,8,11,14,17-eicosa-hexaenyl)-5-hydroxy-2(5H)-furanone], `CCCCC/C=C\C/C=C\C/C=C\C/C=C\CCC1=CC(=O)OC1O` (centres unmarked) [Example 3, (Z,Z,Z,Z)-5-hydroxy-4-(3,6,9,12-octa-decatetraenyl)-2(5H)-furanone] is higher in inhibition at 30 µg/mL: 0% for the first, 41% for the second.

First: CCCCCCCC/C=C\CCCCCCC1=CC(=O)OC1O (centres unmarked) [Example 11, (Z)-4-(7-hexadecenyl)-5-hydroxy-2(5H)-furanone]
Second: CCCCCCCC/C=C/CCCCCCC1=CC(=O)OC1O (centres unmarked) [Example 4, (E)-4-(7-hexadecenyl)-5-hydroxy-2(5H)-furanone]
The inhibition at 30 µg/mL of the first is higher: 51% for the first, 0% for the second.

Going from `CC(C)=CCCC(C)=CCCC(=CCCC1=CC(=O)OC1O)CO` (centres unmarked) [Example 19, 5-Hydroxy-4-[4-(hydroxymethyl)-8,12-dimethyl-3,7,11-tridecatrienyl]-2(5H)-furanone] to `CC(C)=CCCC(C)=CCCC(C)=CCCC1=CC(=O)OC1O` (centres unmarked) [Example 13, 5-Hydroxy-4-(4,8,12-trimethyl-3,7,11-tri-decatrienyl)-2(5H)-furanone], the inhibition at 30 µg/mL falls from 76% to 50%.

`CCCCC/C=C\C/C=C\CCCCCCC1=CC(=O)OC1O` (centres unmarked) [Example 1, (Z,Z)-4-(7,10-hexadecadienyl)-5-hydroxy-2-(5H)-furanone] and `CCCCC/C=C\C/C=C\C/C=C\CCCC1=CC(=O)OC1O` (centres unmarked) [Example 5, (Z,Z,Z)-4-(4,7,10-hexadecatrienyl)-5-hydroxy-2(5H)-furanone] are the same in inhibition at 30 µg/mL: 77% for the first, 77% for the second.

Going from `CC/C=C\C/C=C\C/C=C\CCCCCCC1=CC(=O)OC1O` (centres unmarked) [Example 2, (Z,Z,Z)-4-(7,10,13-hexadecatrienyl)-5-hydroxy-2(5H)-furanone] to `CC(C)=CCC/C(C)=C/CCC1=CC(=O)OC1O` (centres unmarked) [Example 14, (E,E)-4-(4,8-dimethyl-3,7-nonadienyl)-5-hydroxy-2(5H)-furanone], the inhibition at 30 µg/mL falls from 82% to 72%.

Going from `O=C1C=C(CCCCOc2ccc3ccccc3c2)C(O)O1` (centres unmarked) [Example 12, 5-Hydroxy-4-[4-(2-naphthalenyloxy)butyl]-2(5H)-furanone] to `O=C1C=C(CCCCCOc2ccccc2Cc2ccccc2)C(O)O1` (centres unmarked) [Example 18, 5-Hydroxy-4-[5-(2-benzylphenoxy)pentyl]-2(5H)-furanone], the inhibition at 30 µg/mL falls from 72% to 44%.

`CC(C)=CCCC(C)=CCCC(C=O)=CCCC1=CC(=O)OC1O` (centres unmarked) [Example 15, 2-[3-(2,5-dihydro-2-hydroxy-5-oxo-3-furanyl)-propylidene]-6,10-dimethyl-5,9-undecadienal] was tested, and the inhibition at 30 µg/mL was 88%.
